The text below walks through data of ChEMBL document CHEMBL1131822, “Nonpeptidic HIV protease inhibitors: 6-alkyl-5,6-dihydropyran-2-ones possessing a novel and achiral 3-(2-t-butyl-5-methyl-4-sulfamate)phenylthio moiety” (Bioorg Med Chem Lett, 1999).

Where only a bound is given, the exact number is not on record here.

Data set [1] relates to CYP2D6. The experiment in a line: Inhibition of Cytochrome P450 2D6 at 100 uM. In kind it is ADME.
The target of data set [2] is T1, CYP2C9 (Homo sapiens, UniProt P11712). Put plainly: Inhibition of Cytochrome P450 2C9 at 100 uM. In kind it is ADME.
T1 sequence (P11712 whole entry): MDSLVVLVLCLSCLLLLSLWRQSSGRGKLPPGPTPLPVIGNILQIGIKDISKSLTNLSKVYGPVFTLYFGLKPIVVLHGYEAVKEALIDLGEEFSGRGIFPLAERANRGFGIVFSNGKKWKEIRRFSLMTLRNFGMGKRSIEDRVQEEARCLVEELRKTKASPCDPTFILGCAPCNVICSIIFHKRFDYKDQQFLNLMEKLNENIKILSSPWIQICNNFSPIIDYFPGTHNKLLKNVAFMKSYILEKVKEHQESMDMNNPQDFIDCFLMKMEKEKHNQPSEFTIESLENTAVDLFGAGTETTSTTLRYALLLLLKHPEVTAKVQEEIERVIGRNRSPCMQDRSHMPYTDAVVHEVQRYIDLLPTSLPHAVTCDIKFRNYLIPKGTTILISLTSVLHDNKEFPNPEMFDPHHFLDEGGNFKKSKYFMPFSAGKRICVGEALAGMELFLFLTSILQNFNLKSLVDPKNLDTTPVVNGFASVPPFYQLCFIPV
Data set [3] relates to CYP2D6. Put plainly: Inhibition of Cytochrome P450 2D6 at 1 uM. Format: ADME.
The target in data set [4] is T2, CYP3A4 (Homo sapiens, UniProt P08684). The experiment in a line: Inhibition of Cytochrome P450 3A4 at 10 uM. In kind it is ADME.
T2 sequence (P08684 whole entry): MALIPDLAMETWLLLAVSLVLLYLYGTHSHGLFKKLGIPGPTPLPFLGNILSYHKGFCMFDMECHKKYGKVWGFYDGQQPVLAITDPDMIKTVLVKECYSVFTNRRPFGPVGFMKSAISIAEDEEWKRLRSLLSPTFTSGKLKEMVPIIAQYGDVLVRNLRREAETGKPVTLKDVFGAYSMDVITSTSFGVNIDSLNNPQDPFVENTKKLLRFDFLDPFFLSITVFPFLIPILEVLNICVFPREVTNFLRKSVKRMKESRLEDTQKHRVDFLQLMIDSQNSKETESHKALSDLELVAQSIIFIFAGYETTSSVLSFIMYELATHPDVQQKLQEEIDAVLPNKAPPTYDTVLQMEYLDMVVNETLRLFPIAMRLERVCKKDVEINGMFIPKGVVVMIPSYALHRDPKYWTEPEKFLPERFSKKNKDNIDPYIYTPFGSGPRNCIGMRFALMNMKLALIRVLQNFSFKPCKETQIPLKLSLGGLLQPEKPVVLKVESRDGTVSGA
Data set [5] relates to Human immunodeficiency virus 1. Put plainly: In vitro inhibition of HIV-1 (IIIB) cytopathic effects in CEM (human leukemia) cells. Format: functional, organism-based. Particulars: Human immunodeficiency virus 1, CCRF-CEM. Background: Protection from cytopathic effect is a common read-out in antiviral testing.
In data set [6] the target is T3, Human immunodeficiency virus type 1 protease (Human immunodeficiency virus 1, UniProt Q72874). Put plainly: Compound was tested for binding affinity against HIV protease.
Data set [7] concerns the target T1, CYP2C9. Put plainly: Inhibition of Cytochrome P450 2C9 at 1 uM. In kind it is ADME.
The target of data set [8] is T2, CYP3A4. Put plainly: Inhibition of Cytochrome P450 3A4 at 100 uM. Format: ADME.
The target in data set [9] is T3, Human immunodeficiency virus type 1 protease. The experiment in a line: Tested in vitro for HIV protease (PR) binding affinity.
Data set [10] concerns the target T2, CYP3A4. The experiment in a line: Inhibition of Cytochrome P450 3A4 at 1 uM. Format: ADME.
Data set [11] is described as follows: Therapeutic index was determined. Conditions: read-out: Therapeutic index.
Data set [12] has as its target T1, CYP2C9. The experiment in a line: Inhibition of Cytochrome P450 2C9 at 10 uM. Format: ADME.
The test system of data set [13] is CYP2D6. The experiment in a line: Inhibition of Cytochrome P450 2D6 at 10 uM. Format: ADME.
Data set [14] can be described thus: In vitro Cytotoxicity against uninfected CEM (human leukemia) cells. Particulars: CCRF-CEM, read-out: TC50 (the source's name). In kind it is functional.

For orientation: inhibition means the share of the control response that was lost under treatment. The low end stands for a weak effect, the high end for a strong effect. A word on the EC50: it is the concentration that produces a half-maximal response. A lower EC50 goes with higher potency in that assay. By Ki is commonly meant a measure of affinity in units of concentration, obtained from inhibition or displacement. Low readings indicate a stronger hold on the target, high ones a looser hold on the target. In general, IC50 refers to the concentration needed to halve the response being measured. As for `Cc1cc(SC2=C(O)O[C@](CCc3ccc(N)cc3)(C(C)C)CC2=O)c(C(C)(C)C)cc1CO`, the inhibition at 100 µM turned out to be 33% in [1], 59% in data set [2] and 30% in data set [8]. Further, the inhibition at 1 µM was 3% in data set [3], 2% in data set [7] and 4% in data set [10]. Further, the inhibition at 10 µM turned out to be 16% in data set [4], 12% in data set [12] and 16% in data set [13]. The same compound returned an EC50 in data set [5] of 200 nM. The compound also yielded a Ki in data set [6] of 0.11 nM. The IC50 in data set [9] was 1 nM. Moreover, the selectivity ratio in data set [11] amounted to 1050.
For `Cc1cc(SC2=C(O)OC(CCc3ccc(O)cc3)(C(C)C)CC2=O)c(C(C)(C)C)cc1OS(=O)(=O)N1CCOCC1` (configuration not stated), the CC50 in [14] came to 84000 nM. Also, in data set [5], the EC50 was 770 nM. The same compound returned an IC50 in data set [9] of 2.6 nM. Moreover, the selectivity ratio in data set [11] came to 109.
On to `CCNS(=O)(=O)Oc1cc(C(C)(C)C)c(SC2=C(O)OC(CCc3ccc(N)cc3)(C(C)C)CC2=O)cc1C` (configuration not stated), for which, in data set [14], the CC50 turned out to be 74000 nM. The concentration giving a half-maximal response (EC50) in data set [5] was found to be 630 nM. Besides, the IC50 in data set [9] worked out at 4.3 nM. In addition, in [11], the selectivity ratio was found to be 117.
Regarding `CCNS(=O)(=O)Oc1cc(C(C)(C)C)c(SC2=C(O)OC(CCc3ccc(O)cc3)(C3CCCCC3)CC2=O)cc1C` (configuration not stated), the CC50 in data set [14] was found to be 67000 nM. Also, the EC50 in [5] came out at 1400 nM. Besides, the IC50 in data set [9] worked out at 4.8 nM. Further, the selectivity ratio in [11] was determined as 48.
The corresponding values for `Cc1cc(SC2=C(O)OC(CCc3ccc(N)cc3)(C(C)C)CC2=O)c(C(C)(C)C)cc1OS(=O)(=O)N(C)C` (configuration not stated) are 64000 nM, 740 nM, 3.9 nM and 86.
On to `Cc1cc(SC2=C(O)OC(CCc3ccc(N)cc3)(C(C)C)CC2=O)c(C(C)(C)C)cc1OS(=O)(=O)N1CCN(C)CC1` (configuration not stated), for which the CC50 in data set [14] turned out to be 71000 nM. Also, in data set [5], the EC50 worked out at 560 nM. Also, the IC50 in [9] turned out to be 1 nM. Further, the selectivity ratio in data set [11] was 127.
The corresponding values for `CCCNS(=O)(=O)Oc1cc(C(C)(C)C)c(SC2=C(O)OC(C)(CCc3ccc(O)cc3)CC2=O)cc1C` (configuration not stated) are 66000 nM, 4300 nM, 6.2 nM and 15.
Consider `Cc1cc(SC2=C(O)OC(CCc3ccc(O)cc3)(C(C)C)CC2=O)c(C(C)(C)C)cc1OS(=O)(=O)N(C)C` (configuration not stated), for which the CC50 in data set [14] turned out to be 70000 nM. Besides, a half-maximal response in data set [5] (EC50) required 700 nM. Besides, the IC50 in [9] was 3.4 nM. Besides, in [11], the selectivity ratio came to 100.
Taken in the same sequence, the figures for `Cc1cc(SC2=C(O)OC(C)(CCc3ccc(O)cc3)CC2=O)c(C(C)(C)C)cc1O` (configuration not stated) were 7000 nM, > 7000 nM, 6.5 nM and < 1.
Taken in the same sequence, the figures for `CCNS(=O)(=O)Oc1cc(C(C)(C)C)c(SC2=C(O)OC(CCc3ccccc3)(C(C)C)CC2=O)cc1C` (configuration not stated) were 67000 nM, 770 nM, 8.9 nM and 87.
Take `Cc1cc(SC2=C(O)OC(CCc3ccccc3)(C(C)C)CC2=O)c(C(C)(C)C)cc1OS(=O)(=O)N1CCN(C)CC1` (configuration not stated): the CC50 in [14] was > 100000 nM. In addition, it took 1650 nM to reach a half-maximal effect in data set [5] (EC50). This compound also displayed an IC50 in [9] of 3.9 nM. Besides, the selectivity ratio in data set [11] is > 61.
The corresponding values for `Cc1cc(SC2=C(O)OC(C)(CCc3ccc(O)cc3)CC2=O)c(C(C)(C)C)cc1OS(=O)(=O)N(C)C` (configuration not stated) are > 100000 nM, 8200 nM, 1.6 nM and > 12.
In the case of `CCCNS(=O)(=O)Oc1cc(C(C)(C)C)c(SC2=C(O)OC(CCc3ccc(O)cc3)(C(C)C)CC2=O)cc1C` (configuration not stated), the CC50 in data set [14] was > 100000 nM. Moreover, in data set [5], the EC50 turned out to be 1200 nM. The IC50 in [9] turned out to be 3 nM. Moreover, the selectivity ratio in data set [11] was > 83.
Consider `Cc1cc(SC2=C(O)OC(C)(CCc3ccc(O)cc3)CC2=O)c(C(C)(C)C)cc1OS(=O)(=O)N1CCN(C)CC1` (configuration not stated), for which the CC50 in data set [14] is > 100000 nM. The compound also gave an EC50 in data set [5] of 2300 nM. The compound also came in with a 50% inhibitory concentration (IC50) in data set [9] of 7.1 nM. In addition, the selectivity ratio in [11] was > 44.
Taken in the same sequence, the figures for `CCNS(=O)(=O)Oc1cc(C(C)(C)C)c(SC2=C(O)OC(CCc3ccc(O)cc3)(C(C)C)CC2=O)cc1C` (configuration not stated) were > 100000 nM, 1100 nM, 4.9 nM and > 91.
`CNS(=O)(=O)Oc1cc(C(C)(C)C)c(SC2=C(O)OC(CCc3ccc(O)cc3)(C(C)C)CC2=O)cc1C` (configuration not stated): the CC50 in data set [14] was > 100000 nM. For the same compound, the midpoint of the response in [5], the EC50, lay at 1100 nM. The compound further showed a half-inhibitory concentration (IC50) in data set [9] of 1.2 nM. In data set [11], the selectivity ratio was > 91.
Taken in the same sequence, the figures for `CCNS(=O)(=O)Oc1cc(C(C)(C)C)c(SC2=C(O)OC(CCc3ccc(O)cc3)(c3ccccc3)CC2=O)cc1C` (configuration not stated) were 66000 nM, 4300 nM, 26 nM and 15.
Turning to `Cc1cc(SC2=C(O)OC(C)(CCc3ccc(O)cc3)CC2=O)c(C(C)(C)C)cc1OS(N)(=O)=O` (configuration not stated), the CC50 in data set [14] came out at 69000 nM. Also, in [5], the EC50 came to 5200 nM. The compound also yielded an IC50 in [9] of 1.8 nM. Besides, in data set [11], the selectivity ratio worked out at 13.
With `CCNS(=O)(=O)Oc1cc(C(C)(C)C)c(SC2=C(O)OC(C)(CCc3ccc(O)cc3)CC2=O)cc1C` (configuration not stated), the inhibition at 100 µM in data set [1] was 100%; in data set [2] it was 46%; in [8], 58%. The CC50 in [14] stood at 66000 nM. Further, the inhibition at 1 µM in data set [3] turned out to be 62%; in [7], 0%; in data set [10] it was 1%. For the same compound, the inhibition at 10 µM in data set [4] turned out to be 10%; in data set [12], 6%; in data set [13], 89%. Besides, the response in [5] was half-maximal at 1500 nM (EC50). The IC50 in [9] is 2.3 nM. Further, the selectivity ratio in data set [11] was found to be 44.
For `Cc1cc(SC2=C(O)OC(CCc3ccc(O)cc3)(C(C)C)CC2=O)c(C(C)(C)C)cc1OS(=O)(=O)N1CCN(C)CC1` (configuration not stated), the inhibition at 100 µM in [1] was 100%; in data set [8] it was 81%. Moreover, the CC50 in [14] is > 100000 nM. The inhibition at 1 µM was 39% in [3] and 0% in data set [10]. Further, the inhibition at 10 µM in data set [4] worked out at 22%; in data set [13] it was 86%. Besides, the EC50 in data set [5] amounted to 500 nM. Moreover, the IC50 in [9] is 3.1 nM. The selectivity ratio in data set [11] was > 200.
Consider `Cc1cc(SC2=C(O)OC(CCc3ccc(O)cc3)(C3CCCCC3)CC2=O)c(C(C)(C)C)cc1OS(=O)(=O)N1CCN(C)CC1` (configuration not stated), for which the CC50 in data set [14] was > 100000 nM. In addition, in data set [5], it took 5100 nM to reach a half-maximal effect (EC50). Further, the IC50 in data set [9] was determined as 9.7 nM. The selectivity ratio in data set [11] was > 20.
Taken in the same sequence, the figures for `Cc1cc(SC2=C(O)OC(CCc3ccc(O)cc3)(C3CCCCC3)CC2=O)c(C(C)(C)C)cc1OS(=O)(=O)N(C)C` (configuration not stated) were 60000 nM, 5000 nM, 20 nM and 12.
